Columns and labels:
[1] = test system: human umbilical vein endothelial cells (HUVEC); assay: Measurement of vWF release after reperfusion (ELISA of cell supernatant); assay type: cell-based
Description: All the examples were carried out with human umbilical vein endothelial cells (HUVEC). These comprise primary cell cultures isolated from the umbilical vein.
For the following examples, the cells were cultivated either on gelatinized glass plates (measurement of the intracellular proton concentration) or on cell culture plates (12-well culture plates, Falcon, N.J., USA; measurement of vWF release) after the first passage.
The measurements were carried out in a Heraeus Heracell incubator. This made it possible to […] the umbilical vein endothelial cells under controlled physiological conditions (temperature 37° C., relative humidity 100%, pCO2 constant at 5%) and to ensure rapid change of different cell culture media. […]
The samples taken from the supernatant were used to determine the vWF concentration. […] The vWF content of standard human plasma (Behring, Marburg) is calculated using an international standard (2nd International Standard 87/718; National Institute for Biological Standards and Control, London).
Table 4: vWF secretion was measured during a 10-minute reperfusion time with stimulation. […]

[2] = test system: human umbilical vein endothelial cells (HUVEC); assay: Measurement of the intracellular pH (BCECF fluorescence) during reperfusion simulation after acidosis; assay type: cell-based; details: reperfusion buffer pH 7.4 with 10 μM histamine after 60 minutes of acidosis (pHex 6.4); inhibitors each 10 μM; found from first 30 seconds after reperfusion; Mean ± SEM; control buffer 18 ± 1.5
Description: All the examples were carried out with human umbilical vein endothelial cells (HUVEC). These comprise primary cell cultures isolated from the umbilical vein. For the following examples, the cells were cultivated either on gelatinized glass plates (measurement of the intracellular proton concentration) or on cell culture plates (12-well culture plates, Falcon, N.J., USA; measurement of vWF release) after the first passage. To measure the intracellular proton concentration (pHi), the HUVECs were loaded with the pH-sensitive fluorescent dye BCECF-AM (2′,7′-bis(carboxyethyl)-5(6)-carboxyfluorescein). A Deltascan spectrofluorometer (PTI, Hamburg) was employed for the subsequent fluorescence measurement. This measuring system consists essentially of a UV light source, a monochromator, a photon detector and the Felix and Oscar software packages (PTI, Hamburg) for controlling the system via a computer. After alternate excitation with the wavelengths 439.5 nm (pH-independent) and 490 nm (pH-sensitive), the ratio of the measured emissions of the BCECF (ratio) was reported and the pH was found after a calibration. The measuring cell is designed so that the parameters of temperature and carbon dioxide partial pressure in the system are controlled during continuous perfusion. […]

SMILES | vWF secretion during reperfusion of preacidotic cells, relative to control cells (vWFco = 100%) ([1]; 10 μM compound, 10-minute reperfusion time with stimulation (10 μM histamine), preacidotic cells without inhibitor 193 ± 8.0%) | reduction of the increased vWF secretion during reperfusion ([1]; blockade of the NCBE transporter, 10 μM, reperfusion of preacidotic cells) | Time to Δ PHi, max/2 (time to the half-maximum pHi change) [2]
COCCOc1nc(-c2ccccc2)n(Cc2ccc(-c3ccccc3S(=O)(=O)NC#N)cc2S(C)(=O)=O)c1C=O [Compound 1, 4′-[5-formyl-4-(2-methoxyethoxy)-2-phenyl-1-imidazolylmethyl]-3′-methylsulfonylbiphenyl-2-sulfonylcyanamide] | 157 ± 18% | ~50% | 
CC(C)c1ccc(C(=O)NC(=N)N)cc1S(C)(=O)=O [NHE, cariporide] |  |  | 190 ± 2.9 s

— patent US20060025401A1, “Use of inhibitors of the sodium-dependent chloride/bicarbonate exchanger for the treatment of thrombotic and inflammatory disorders” (Sanofi-Aventis Deutschland GmbH, priority 2002, published 2006)
